Laboratory results taken from patent publication US20240208992A1, “MACROCYCLES AS CFTR MODULATORS” (Idorsia Pharmaceuticals Ltd, priority 2021, published 2024).

Biological target: human F508del-CFTR (Homo sapiens, UniProt P13569, DEL508-508)
Assay: F508del-CFTR cell surface expression (corrector activity), DiscoveRx ß-galactosidase complementation chemiluminescence assay in recombinant U2OS cell line;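 further: U2OS cells co-expressing ProLink-tagged F508del-CFTR and a membrane-anchored enzyme acceptor, where more surface CFTR restores β-galactosidase activity measured by chemiluminescence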
Conditions: for EC50: EC50, F508del-CFTR cell surface expression
[1] = U2OS cells, 16h compound incubation, geomean of several measurements
[2] = U2OS, in relation to the Emax of the corrector lumacaftor (=100%), U2OS cells, 16h compound incubation, arithmetic mean
[3] = U2OS cells, 16h compound incubation, geomean values
[4] = U2OS, in relation to Emax of corrector lumacaftor (=100%), arithmetic mean values
[5] = U2OS cell line, 16h compound incubation, geomean values
[6] = U2OS, in relation to the Emax of the corrector lumacaftor (=100%), U2OS cell line, 16h compound incubation, arithmetic mean values

Sequence of human F508del-CFTR (P13569 with tags, fused parts or gaps DEL508-508): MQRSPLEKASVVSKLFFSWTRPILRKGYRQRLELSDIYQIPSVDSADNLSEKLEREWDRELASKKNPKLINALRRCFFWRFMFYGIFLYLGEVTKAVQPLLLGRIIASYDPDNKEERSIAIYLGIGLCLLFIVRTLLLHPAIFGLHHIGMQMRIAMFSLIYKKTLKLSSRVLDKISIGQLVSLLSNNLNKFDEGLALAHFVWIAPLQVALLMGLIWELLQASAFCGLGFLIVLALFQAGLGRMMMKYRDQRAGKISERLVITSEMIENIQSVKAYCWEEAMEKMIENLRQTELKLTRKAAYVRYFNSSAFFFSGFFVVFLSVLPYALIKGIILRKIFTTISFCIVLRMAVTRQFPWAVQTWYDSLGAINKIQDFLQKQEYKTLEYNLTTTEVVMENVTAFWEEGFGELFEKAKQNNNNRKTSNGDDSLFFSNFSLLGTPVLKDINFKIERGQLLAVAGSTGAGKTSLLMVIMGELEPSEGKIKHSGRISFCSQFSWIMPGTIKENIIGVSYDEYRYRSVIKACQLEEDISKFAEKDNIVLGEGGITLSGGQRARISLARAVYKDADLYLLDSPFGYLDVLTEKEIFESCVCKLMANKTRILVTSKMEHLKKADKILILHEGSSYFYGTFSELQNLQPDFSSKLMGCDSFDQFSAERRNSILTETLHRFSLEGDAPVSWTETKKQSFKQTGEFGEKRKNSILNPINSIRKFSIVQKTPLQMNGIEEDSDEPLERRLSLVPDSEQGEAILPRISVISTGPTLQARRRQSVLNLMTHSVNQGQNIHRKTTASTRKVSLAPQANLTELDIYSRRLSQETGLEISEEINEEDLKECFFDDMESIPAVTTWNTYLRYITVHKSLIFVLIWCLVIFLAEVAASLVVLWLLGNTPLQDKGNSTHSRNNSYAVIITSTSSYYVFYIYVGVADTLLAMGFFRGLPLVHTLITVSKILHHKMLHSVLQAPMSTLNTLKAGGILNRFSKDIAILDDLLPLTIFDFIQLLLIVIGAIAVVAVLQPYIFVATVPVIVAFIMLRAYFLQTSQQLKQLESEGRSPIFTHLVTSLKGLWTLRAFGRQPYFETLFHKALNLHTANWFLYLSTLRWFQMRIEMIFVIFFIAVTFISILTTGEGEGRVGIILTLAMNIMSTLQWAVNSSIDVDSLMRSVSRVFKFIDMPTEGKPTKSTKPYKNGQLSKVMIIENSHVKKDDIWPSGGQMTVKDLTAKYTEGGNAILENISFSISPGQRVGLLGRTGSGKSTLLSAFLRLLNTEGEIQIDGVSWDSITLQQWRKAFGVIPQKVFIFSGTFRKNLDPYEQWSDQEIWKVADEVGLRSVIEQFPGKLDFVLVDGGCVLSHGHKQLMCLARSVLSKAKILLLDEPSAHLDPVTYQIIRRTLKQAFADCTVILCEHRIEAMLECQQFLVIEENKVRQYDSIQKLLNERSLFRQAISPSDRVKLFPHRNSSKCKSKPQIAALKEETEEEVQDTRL

Compound	EC50 [1]	Emax [2]	EC50 [3]	Emax [4]	further results
COc1noc(CCNC(=O)[C@@H]2CC(=O)N(C)[C@@H](CC(C)C)C(=O)N(C)C3(CC3)C(=O)N[C@H](Cc3ccccc3)COc3ccc4ncc(F)cc4c3C(=O)N2)c1F [Example 963, (3′S,7′S,13′R)-13′-benzyl-20′-fluoro-N-(2-(4-fluoro-3-methoxyisoxazol-5-yl)ethyl)-7′-isobutyl-6′,9′-dimethyl-1′,5′,8′,11′-tetraoxo-2′,3′,4′,5′,6′,7′,8′,9′,11′,12′,13′,14′-dodecahydro-1′H-spiro[cyclopropane-1,10′-[1]oxa[4,7,10,14]tetraazacycloheptadecino[16,17-f]quinoline]-3′-carboxamide]	267 nM	447%	–	–	–
Cc1cc(CCNC(=O)[C@@H]2CC(=O)N(C)[C@@H](CC(C)C)C(=O)N(C)[C@H](Cc3cccc4ccccc34)C(=O)N[C@H](Cc3ccccc3)COc3cnc4ccccc4c3C(=O)N2)on1 [Example 698, (3S,7S,10R,13R)-13-benzyl-7-isobutyl-6,9-dimethyl-N-(2-(3-methylisoxazol-5-yl)ethyl)-10-(naphthalen-1-ylmethyl)-1,5,8,11-tetraoxo-1,2,3,4,5,6,7,8,9,10,11,12,13,14-tetradecahydro-[1]oxa[4,7,10,14]tetraazacycloheptadecino[17,16-c]quinoline-3-carboxamide]	–	–	199 nM	313%	–
CC(C)C[C@H]1C(=O)N2CCCC[C@@H]2C(=O)N[C@H](Cc2ccccc2)COc2cnc3ccccc3c2C(=O)N[C@H](C(=O)NCCc2cc(C(C)(C)C)on2)CC(=O)N1C [Example 89, (9S,13S,19aR,22R)-22-benzyl-N-(2-(5-(tert-butyl)isoxazol-3-yl)ethyl)-13-isobutyl-12-methyl-7,11,14,20-tetraoxo-7,8,9,10,11,12,13,14,17,18,19,19a,20,21,22,23-hexadecahydro-16H-pyrido[2′,1′:6,7][1]oxa[4,7,10,14]tetraazacycloheptadecino[17,16-c]quinoline-9-carboxamide]	–	–	–	–	EC50 [5]: 132 nM; Emax (in relation to the Emax of the corrector lumacaftor (=100%), U2OS cell line, 16h compound incubation, arithmetic mean values): 262%
COc1noc(CCNC(=O)[C@@H]2CC(=O)N(C)[C@@H](CC(C)C)C(=O)N(C)[C@H](CC(F)(F)F)C(=O)N[C@H](Cc3ccccc3)COc3ccc4cnc(C)cc4c3C(=O)N2)c1F [Example 960, (3S,7S,10R,13R)-13-benzyl-N-(2-(4-fluoro-3-methoxyisoxazol-5-yl)ethyl)-7-isobutyl-6,9,20-trimethyl-1,5,8,11-tetraoxo-10-(2,2,2-trifluoroethyl)-1,2,3,4,5,6,7,8,9,10,11,12,13,14-tetradecahydro-[1]oxa[4,7,10,14]tetraazacycloheptadecino[16,17-f]isoquinoline-3-carboxamide]	85 nM	507%	–	–	–
COc1cc(CCNC(=O)[C@@H]2CC(=O)N(C)[C@@H](CC(C)C)C(=O)N(C)C3(CC(F)(F)C3)C(=O)N[C@H](Cc3ccccc3)COc3ccc4cnc(C)cc4c3C(=O)N2)on1 [Example 953, (3′S,7′S,13′R)-13′-benzyl-3,3-difluoro-7′-isobutyl-N-(2-(3-methoxyisoxazol-5-yl)ethyl)-6′,9′,20′-trimethyl-1′,5′,8′,11′-tetraoxo-2′,3′,4′,5′,6′,7′,8′,9′,11′,12′,13′,14′-dodecahydro-1′H-spiro[cyclobutane-1,10′-[1]oxa[4,7,10,14]tetraazacycloheptadecino[16,17-f]isoquinoline]-3′-carboxamide]	268 nM	394%	–	–	–
CC(C)C[C@H]1C(=O)N2CCOC[C@@H]2C(=O)N[C@H](Cc2ccccc2)COc2cnc3ccccc3c2C(=O)N[C@H](C(=O)NCCc2cccc(Cl)c2)CC(=O)N1C [Example 51, (9S,13S,19aR,22R)-22-benzyl-N-(3-chlorophenethyl)-13-isobutyl-12-methyl-7,11,14,20-tetraoxo-7,8,9,10,11,12,13,14,16,17,19,19a,20,21,22,23-hexadecahydro-[1,4]oxazino[3′,4′:6,7][1]oxa[4,7,10,14]tetraazacycloheptadecino[17,16-c]quinoline-9-carboxamide]	–	–	–	–	EC50 [5]: 352 nM; Emax [6]: 187%
Cc1cc2ccc3c(c2o1)C(=O)N[C@H](C(=O)NCCc1noc(C2CC2)n1)CC(=O)N(C)[C@@H](CC(C)C)C(=O)N(C)CC(=O)N[C@H](Cc1ccccc1)CO3 [Example 561, (8R,14S,18S)-8-benzyl-N-(2-(5-cyclopropyl-1,2,4-oxadiazol-3-yl)ethyl)-14-isobutyl-2,12,15-trimethyl-10,13,16,20-tetraoxo-7,8,9,10,11,12,13,14,15,16,17,18,19,20-tetradecahydrobenzofuro[7,6-p][1]oxa[4,7,10,14]tetraazacycloheptadecine-18-carboxamide]	–	–	437 nM	215%	–
COc1cccc(CCNC(=O)[C@@H]2CC(=O)N(C)[C@@H](CC(C)C)C(=O)N3CCN(S(=O)(=O)Cc4cccc5cccnc45)C[C@@H]3C(=O)N[C@H](Cc3ccccc3)COc3ccc4ccccc4c3C(=O)N2)c1 [Example 738, (4aR,7R,18S,22S)-7-benzyl-22-isobutyl-N-(3-methoxyphenethyl)-21-methyl-5,16,20,23-tetraoxo-3-((quinolin-8-ylmethyl)sulfonyl)-2,3,4,4a,5,6,7,8,16,17,18,19,20,21,22,23-hexadecahydro-1H-naphtho[1,2-p]pyrazino[2,1-f][1]oxa[4,7,10,14]tetraazacycloheptadecine-18-carboxamide]	–	–	110 nM	256%	–
COc1noc(CCNC(=O)[C@@H]2CC(=O)N(C)[C@@H](CC(C)C)C(=O)N(C)[C@H](CC(F)F)C(=O)N[C@H](Cc3ccccc3)COc3ccc4ncc(F)cc4c3C(=O)N2)c1F [Example 967, (3S,7S,10R,13R)-13-benzyl-10-(2,2-difluoroethyl)-20-fluoro-N-(2-(4-fluoro-3-methoxyisoxazol-5-yl)ethyl)-7-isobutyl-6,9-dimethyl-1,5,8,11-tetraoxo-1,2,3,4,5,6,7,8,9,10,11,12,13,14-tetradecahydro-[1]oxa[4,7,10,14]tetraazacycloheptadecino[16,17-f]quinoline-3-carboxamide]	92 nM	472%	–	–	–
CC(C)C[C@H]1C(=O)N2CCCC[C@@H]2C(=O)N[C@H](Cc2ccccc2)COc2ccncc2C(=O)N[C@H](C(=O)NCCc2ccc3c(c2)OCC3)CC(=O)N1C [Example 593, (7S,11S,17aR,20R)-20-benzyl-N-(2-(2,3-dihydrobenzofuran-6-yl)ethyl)-11-isobutyl-10-methyl-5,9,12,18-tetraoxo-5,6,7,8,9,10,11,12,15,16,17,17a,18,19,20,21-hexadecahydro-14H-dipyrido[2,1-f:3′,4′-p][1]oxa[4,7,10,14]tetraazacycloheptadecine-7-carboxamide]	–	–	614 nM	190%	–
COc1nccc2c1C(=O)N[C@H](C(=O)NCCc1cc(C(F)F)no1)CC(=O)N(C)[C@@H](CC(C)C)C(=O)N1CCCC[C@@H]1C(=O)N[C@H](Cc1ccccc1)CO2 [Example 191, (7S,11S,17aR,20R)-20-benzyl-N-(2-(3-(difluoromethyl)isoxazol-5-yl)ethyl)-11-isobutyl-4-methoxy-10-methyl-5,9,12,18-tetraoxo-5,6,7,8,9,10,11,12,15,16,17,17a,18,19,20,21-hexadecahydro-14H-dipyrido[2,1-f:3′,4′-p][1]oxa[4,7,10,14]tetraazacycloheptadecine-7-carboxamide]	–	–	–	–	EC50 [5]: 474 nM; Emax [6]: 295%
COc1cccc(CCNC(=O)[C@@H]2CC(=O)N(C)[C@@H](CC(C)C)C(=O)N3CCN(C)C[C@@H]3C(=O)N[C@H](Cc3ccccc3)COc3cnc4ccccc4c3C(=O)N2)c1 [Example 459, (9S,13S,19aR,22R)-22-benzyl-13-isobutyl-N-(3-methoxyphenethyl)-12,18-dimethyl-7,11,14,20-tetraoxo-7,8,9,10,11,12,13,14,17,18,19,19a,20,21,22,23-hexadecahydro-16H-pyrazino[2′,11:6,7][1]oxa[4,7,10,14]tetraazacycloheptadecino[17,16-c]quinoline-9-carboxamide]	–	–	726 nM	390%	–
COc1ccc(CCNC(=O)[C@@H]2CC(=O)N(C)[C@@H](CC(C)C)C(=O)N3CCCC[C@@H]3C(=O)N[C@H](Cc3ccccc3)COc3ccc4ncn(C)c4c3C(=O)N2)cc1 (racemic) [Example 25, (8RS,12S,18aR,21R)-21-benzyl-12-isobutyl-N-(4-methoxyphenethyl)-5,11-dimethyl-6,10,13,19-tetraoxo-6,7,8,9,10,11,12,13,16,17,18,18a,19,20,21,22-hexadecahydro-5H,15H-imidazo[4′,5′:5,6]benzo[1,2-p]pyrido[2,1-f][1]oxa[4,7,10,14]tetraazacycloheptadecine-8-carboxamide]	–	–	–	–	EC50 [5]: 547 nM; Emax [6]: 142%
COc1nccc2c1C(=O)N[C@H](C(=O)NCCc1noc(C3CC3)n1)CC(=O)N(C)[C@@H](CC(C)C)C(=O)N1CCCCC[C@@H]1C(=O)N[C@H](Cc1ccccc1)CO2 [Example 863, (7S,11S,18aR,21R)-21-benzyl-N-(2-(5-cyclopropyl-1,2,4-oxadiazol-3-yl)ethyl)-11-isobutyl-4-methoxy-10-methyl-5,9,12,19-tetraoxo-5,6,7,8,9,10,11,12,14,15,16,17,18,18a,19,20,21,22-octadecahydroazepino[2,1-f]pyrido[3,4-p][1]oxa[4,7,10,14]tetraazacycloheptadecine-7-carboxamide]	587 nM	326%	–	–	–
